Experimental data taken from US20070049564A1 (Wyeth, priority 2005, published 2007).
≈ marks a conversion by molar mass, not a printed value. Where two headings read alike, the source gives them in different places.

What was measured:
Staph. aureus Smith [1] = experiment: In vivo activity (oral, iv; ED50) against Staph. aureus Smith in mice
Staph. = experiment: Range of MIC for Staph. strains, including MRSA; conditions: Staphylococcus aureus, MRSA
Staph. aureus Smith [2] = experiment: In vitro activity (MIC) against Staph. aureus Smith; type: cell-based; conditions: Staphylococcus aureus; Table 8
E. coli = experiment: Range of MIC for E. coli strains; conditions: Escherichia coli

MIC (Staph.; read-out: Range of MIC, Staph (Mouse Serum)): 0.12 to 2 µg/mL (≈ 0.159 to 2.65 µM)
MIC (Staph.; read-out: Range of MIC, Staph (Water)): 0.12 to 2 µg/mL (≈ 0.159 to 2.65 µM)
MIC (Staph.; read-out: Range of MIC, Staph. (mouse serum)): 0.12 to 2 µg/mL (≈ 0.159 to 2.65 µM)
MIC (Staph.; read-out: Range of MIC, Staph. (water)): 0.12 to 2 µg/mL (≈ 0.159 to 2.65 µM)
MIC (Staph. aureus Smith [2]): 0.12 µg/mL (≈ 0.159 µM)
MIC (E. coli; 20 h, read-out: Range of MIC, E. coli (Mouse Serum)): 0.5 to 2 µg/mL (≈ 0.662 to 2.65 µM)
MIC (E. coli; read-out: Range of MIC, E. coli (mouse serum)): 0.5 to 2 µg/mL (≈ 0.662 to 2.65 µM)
Compound: CCCN(CC(=O)Nc1cc(N(C)C)c2c(c1O)C(=O)C1=C(O)[C@]3(O)C(=O)C(C(N)=O)=C(O)[C@@H](N(C)C)C3CC1C2)C(=O)OCOC(=O)C1CCCCC1 (stereo partly drawn) [Example 33, ({[(2-{[(7S,10aS)-9-(aminocarbonyl)-4,7-bis(dimethylamino)-1,8,10a,11-tetrahydroxy-10,12-dioxo-5,5a,6,6a,7,10,10a,12-octahydrotetracen-2-yl]amino}-2-oxoethyl)(propyl)amino]carbonyl}oxy)methyl cyclohexanecarboxylate]
ED50 (Staph. aureus Smith [1]; Staphylococcus aureus, in Mus musculus, iv, read-out: ED50 SIV (Staph aureus Smith)): 0.48 mg/kg
ED50 (Staph. aureus Smith [1]; Staphylococcus aureus, in Mus musculus, po, read-out: ED50 SOD (Staph aureus Smith)): 4.91 mg/kg
ED50 (Staph. aureus Smith [1]; Staphylococcus aureus, in Mus musculus, po, read-out: ED50 Staph Smith SOD): 4.91 mg/kg
ED50 (Staph. aureus Smith [1]; iv, read-out: ED50 Staph Smith SIV): 0.45 mg/kg
